Experiment [1] has as its system SW620 cells. Briefly: Cell proliferation assay (CellTiter-Glo), SW620. Format: cell-based. Conditions: Homo sapiens, 120 h, SW-620 (MSS), 5 days incubation. The procedure:
(§1) SW48 cells were plated at a density of 1,500 cells/well, and LoVo, HCT116, and SW620 cells were plated at a density of 800 cells/well in a 96-well cell culture plate, and cultured in a 37°C incubator overnight. The test compounds, which were gradient-diluted with DMSO, were added, and after incubation for 5 days, cell viability was detected using a CellTiter-Glo kit. The CellTiter-Glo reagent was equilibrated to room temperature, and an appropriate amount was added to the cell plate, followed by shaking at room temperature for 12 min. The luminescence signal was detected using a microplate reader.
(§2) The luminescence signal values of the DMSO-treated wells and cell-free wells were used as negative and positive controls, respectively, to calculate the inhibition rate of compound on cell proliferation. The concentration-inhibition curve was fitted using the "log(inhibitor) vs. normalized response -- Variable slope" equation in GraphPad Prism 8 software to obtain the IC50. [formula]
A general note: Cellular ATP, detected with luciferase, serves as a proxy for viable cell number.

For another experiment, the target named is T1, WRN enzyme (Homo sapiens, UniProt Q14191).
T1 construct: host or cells: eukaryotic cells (not further specified)
T1 sequence (Q14191 whole entry): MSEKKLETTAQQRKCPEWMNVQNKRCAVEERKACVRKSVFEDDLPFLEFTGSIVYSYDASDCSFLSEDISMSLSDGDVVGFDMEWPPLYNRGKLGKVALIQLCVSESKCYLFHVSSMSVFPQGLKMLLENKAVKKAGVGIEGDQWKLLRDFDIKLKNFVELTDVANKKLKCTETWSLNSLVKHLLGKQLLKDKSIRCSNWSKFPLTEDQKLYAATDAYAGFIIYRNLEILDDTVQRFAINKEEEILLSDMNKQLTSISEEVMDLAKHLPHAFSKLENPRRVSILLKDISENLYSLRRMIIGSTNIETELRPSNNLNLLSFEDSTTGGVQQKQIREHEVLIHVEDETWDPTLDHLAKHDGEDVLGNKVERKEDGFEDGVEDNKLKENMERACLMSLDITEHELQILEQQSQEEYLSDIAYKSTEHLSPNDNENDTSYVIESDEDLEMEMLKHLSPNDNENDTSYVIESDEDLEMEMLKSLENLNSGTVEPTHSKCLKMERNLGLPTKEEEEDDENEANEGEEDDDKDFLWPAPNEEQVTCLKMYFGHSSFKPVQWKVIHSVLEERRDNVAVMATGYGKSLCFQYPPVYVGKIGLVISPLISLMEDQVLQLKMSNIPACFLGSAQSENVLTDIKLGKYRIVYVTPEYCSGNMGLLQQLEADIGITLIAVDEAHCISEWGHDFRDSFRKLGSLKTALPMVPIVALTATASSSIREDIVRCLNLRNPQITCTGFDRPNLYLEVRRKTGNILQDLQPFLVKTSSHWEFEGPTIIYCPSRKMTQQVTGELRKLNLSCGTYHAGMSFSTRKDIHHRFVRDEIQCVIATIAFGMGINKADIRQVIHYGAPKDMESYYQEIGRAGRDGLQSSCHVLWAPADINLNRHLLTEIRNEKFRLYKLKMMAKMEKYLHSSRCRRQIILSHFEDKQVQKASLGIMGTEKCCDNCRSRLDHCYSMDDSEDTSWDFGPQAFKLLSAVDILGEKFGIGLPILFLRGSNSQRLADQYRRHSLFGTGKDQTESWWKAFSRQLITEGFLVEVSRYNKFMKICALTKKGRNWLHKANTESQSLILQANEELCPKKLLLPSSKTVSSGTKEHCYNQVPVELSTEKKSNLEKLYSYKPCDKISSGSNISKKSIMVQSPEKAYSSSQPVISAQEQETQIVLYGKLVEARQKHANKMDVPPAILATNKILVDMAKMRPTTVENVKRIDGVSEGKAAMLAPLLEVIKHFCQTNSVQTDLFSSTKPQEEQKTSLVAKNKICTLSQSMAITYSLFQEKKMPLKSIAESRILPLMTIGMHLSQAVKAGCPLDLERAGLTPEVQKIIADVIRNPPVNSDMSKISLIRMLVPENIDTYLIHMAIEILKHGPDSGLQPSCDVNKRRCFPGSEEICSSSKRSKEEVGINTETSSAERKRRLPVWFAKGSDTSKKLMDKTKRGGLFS
Briefly: biochemical. The procedure: The WRN enzyme used in the experiment has a His-TEV tag at the N-terminus and is expressed in eukaryotic cells with a purity of 90%. The assay kit (ADP-Glo™ Kinase Assay) was purchased from Promega (Cat. No. V9101), aliquoted, and then stored in the refrigerator at -40°C. This kit could quantitatively detect the amount of ADP generated in the reaction. WRN hydrolyzed ATP to produce ADP. The ADP-Glo reagent was added to deplete excess ATP in the reaction system, followed by the addition of Kinase Detection Reagent to convert the ADP produced by the reaction into ATP and produce chemiluminescence. The enzyme activity of WRN can be reflected by detecting the chemiluminescence signal using a microplate reader.
Single-stranded DNA was annealed to form double-stranded DNA. 5× Annealing Buffer: 50 mM Tris pH 8.0, 100 mM NaCl. Annealing program: 95°C, 5 min.
2× WRN enzyme (1 nM) and 2× substrate (1 nM double-stranded DNA, 100 µM ATP) were prepared using a buffer (20 mM Bicine (pH 7.5), 10 mM KCl, 10 mM MgCl2, 0.005% BSG, 0.002% Tween 20, 1 mM TCEP). The test compound was dissolved in DMSO to 10 mM and was gradient-diluted using a 96-well V-bottom plate. First, 25 µL of 2× WRN enzyme and 0.5 µL of compound were added to a 96-well plate and incubated at room temperature for 30 min. Then, 25 µL of 2× substrate was added, and the reaction was carried out at room temperature for 60 min. 5 µL was taken from the reaction plate and transferred to a 384-well plate for detection. 5 µL of ADP-Glo reagent was added and incubated at room temperature for 60 min, followed by the addition of 10 µL of Kinase Detection Reagent and incubation at room temperature for 40 min. The chemiluminescence signal was detected using a microplate reader.

The test system of experiment [2] is SW620 cells. Kind of experiment: γH2AX induction assay (HTRF Phospho-H2AX), SW620. Format: cell-based. Conditions: Homo sapiens, SW-620 (MSS), incubated for 2-3 days, read-out: γ-H2AX induction SW-620 (EC50 nM). The procedure:
(§3) SW48, HCT116, and SW620 cells were plated into 96-well cell culture plates at a density of 15,000-25,000 cells/well and cultured overnight in a 37°C incubator. The test compounds, which were gradient-diluted with DMSO, were added and incubated for 2-3 days. The γ-H2AX level was detected using HTRF Phospho-H2AX (SER139) Detection Kits. The 4× Lysis buffer and Detection buffer were equilibrated to room temperature for later use. The 4× Lysis buffer was diluted to 1× Lysis buffer using ddH2O. After the medium was aspirated, 50 µL of 1× Lysis buffer was added to each well and shaken at room temperature for 30 minutes for lysis. 16 µL of lysate was transferred to a 384-well plate, followed by the addition of 4 µL of diluted antibody mixture (Phospho-H2AX d2 antibody and Phospho-H2AX Eu Cryptate antibody were each diluted 20-fold using Detection buffer, and the two antibodies were then mixed uniformly at a 1:1 volume ratio). The mixture was incubated at room temperature for 2-24 h, and fluorescence signals at […] and 615 nm were detected using a microplate reader. Parallel treatment plates were simultaneously set up in the experiment, and cell viability was detected using the CellTiter-Glo kit. The CellTiter-Glo reagent was equilibrated to room temperature, and an appropriate amount was added to the cell plate, followed by shaking at room temperature for 12 min. The luminescence signal was detected using a microplate reader.
(§4) The fluorescence signal values of DMSO-treated wells and positive drug-treated wells were used as negative and positive controls, respectively, to calculate the level of γ-H2AX induced by the compounds. The concentration-induction rate curve was fitted using the "log(agonist) vs. response -- Variable slope (four parameters)" equation in GraphPad Prism 8 software to obtain the EC50. [formula] [formula]
A general note: In TR-FRET formats the signal depends on donor and acceptor labels being close together.

A further experiment deals with SW48 cells. Briefly: Cell proliferation assay (CellTiter-Glo), SW48. In kind it is cell-based. As to conditions: Homo sapiens, SW48, 120 h, SW-48, 5 days incubation. How it is done: as §1, §2
For a further experiment, the system named is HCT116. Kind of experiment: γH2AX induction assay (HTRF Phospho-H2AX), HCT116. In kind it is cell-based. Conditions: Homo sapiens, HCT-116, incubated for 2-3 days, read-out: γ-H2AX induction HCT-116 (EC50 nM). The procedure: as §3, §4
For another experiment, the system named is SW48. Kind of experiment: γH2AX induction assay (HTRF Phospho-H2AX), SW48. In kind it is cell-based. Conditions: Homo sapiens, SW-48, incubated for 2-3 days, read-out: γ-H2AX induction SW-48 (EC50 nM). How it is done: as §3, §4

Some results are limits rather than exact numbers.

For `CCc1c(N2CCN(C(=O)c3ncnc(C)c3O)CC2)c(=O)c2nn(C3=CCOCC3)nc2n1CC(=O)Nc1cc(F)c(C(F)(F)F)cc1Cl` [Example 15], the values for the IC50 in the experiment with SW620 cells [1], at WRN enzyme and in the experiment on SW48 cells were above 25000 nM, 34.3 nM and 35.4 nM, respectively. Moreover, the concentration giving a half-maximal response (EC50) (in general, the midpoint of the concentration-response curve) was above 10000 nM in the experiment on SW620 cells [2], 97.1 nM in the experiment on HCT116 and 62.9 nM in the experiment with SW48.
Turning to `CCc1c(N2CCN(C(=O)c3ncnc(C)c3O)CC2)c(=O)c2nn(C3=CCOCC3)nc2n1CC(=O)Nc1cc(F)c(Cl)cc1Cl` [Example 22], the results for the concentration for half-maximal inhibition (IC50) with SW620 cells [1], against WRN enzyme and in the experiment with SW48 cells were above 25000 nM, 46.8 nM and 70.7 nM, respectively. Further, the EC50 in the experiment with SW620 cells [2] was above 10000 nM; in the experiment on HCT116, 168 nM; in the experiment with SW48, 128 nM.
Turning to `CCc1c(N2CCN(C(=O)c3ncnc(C)c3O)CC2)c(=O)c2nn(C3=CCOCC3)nc2n1CC(=O)Nc1ccc(C(F)(F)F)cc1Cl` [Example 4], the figures for the half-inhibitory concentration (IC50) with SW620 cells [1], on WRN enzyme and in the experiment on SW48 cells were above 25000 nM, 88.5 nM and 37.2 nM, respectively. The half-maximal effective concentration (EC50) with SW620 cells [2] was above 10000 nM; in the experiment on HCT116, 128 nM; in the experiment on SW48, 53.8 nM.

These data come from patent EP4692088A1, “COMPOUND ACTING AS WRN HELICASE INHIBITOR” (SHANGHAI JEYOU PHARMACEUTICAL CO., LTD., priority 2023, dated 2024).
